Measured values: ChEMBL document CHEMBL1133907, “Discovery of thioazepinone ligands for Src SH2: from non-specific to specific binding” (Bioorg Med Chem Lett, 2001)

Key:
[1] = target: T1, Proto-oncogene tyrosine-protein kinase Src (Homo sapiens, UniProt P12931); assay: Binding affinity was determined on Src protein tyrosine kinase SH2 domain using fluorescence polarization assay with 2% DMSO in buffer solution
[2] = target: T1, Proto-oncogene tyrosine-protein kinase Src; assay: Binding affinity for Src protein tyrosine kinase SH2 domain
[3] = target: T1, Proto-oncogene tyrosine-protein kinase Src; assay: Binding affinity for Src protein tyrosine kinase SH2 domain using fluorescence polarization assay with 20% DMSO in buffer solution
[4] = target: T1, Proto-oncogene tyrosine-protein kinase Src; assay: Binding affinity was determined on Src protein tyrosine kinase SH2 domain using scintillation proximity assay (SPA)

T1 sequence (P12931 2-536 limits assumed): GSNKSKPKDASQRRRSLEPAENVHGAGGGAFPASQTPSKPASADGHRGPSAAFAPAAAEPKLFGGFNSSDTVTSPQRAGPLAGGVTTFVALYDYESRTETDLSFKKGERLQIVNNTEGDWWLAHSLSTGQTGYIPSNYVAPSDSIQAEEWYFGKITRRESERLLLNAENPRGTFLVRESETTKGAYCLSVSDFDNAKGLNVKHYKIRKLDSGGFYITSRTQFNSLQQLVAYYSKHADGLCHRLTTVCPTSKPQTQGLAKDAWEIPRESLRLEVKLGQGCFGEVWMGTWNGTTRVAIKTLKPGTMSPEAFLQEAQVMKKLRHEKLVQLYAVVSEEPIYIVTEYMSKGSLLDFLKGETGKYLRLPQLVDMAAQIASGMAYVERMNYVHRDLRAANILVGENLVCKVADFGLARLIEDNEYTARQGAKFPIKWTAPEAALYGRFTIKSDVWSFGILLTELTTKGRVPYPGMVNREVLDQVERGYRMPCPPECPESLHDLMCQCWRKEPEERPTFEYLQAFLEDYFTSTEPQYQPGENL

| SMILES | IC50 [1] | other results |
| --- | --- | --- |
| CC(=O)N[C@@H](Cc1ccc(OP(=O)(O)O)cc1)C(=O)N[C@H]1CSCCN(Cc2cccc(C(F)(F)F)c2)C1=O | 1.6 µM |  |
| CC(C)(C)OC(=O)N[C@@H](Cc1ccc(OP(=O)(O)O)cc1)C(=O)NC1CSc2ccccc2N(CCCC2CCCCC2)C1=O (stereo partly drawn) | 10 µM | IC50 [2]: 1 µM; IC50 [3]: 11 µM |
| COc1ccc(C2Sc3ccccc3N(CC(=O)NCc3cccc4ccccc34)C(=O)C2NC(=O)c2ccc3c(Cl)c(OP(=O)(O)OCc4ccccc4)ccc3c2)cc1 (stereo not drawn) | 27 µM |  |
| CC(=O)N[C@@H](Cc1ccc(OP(=O)(O)O)cc1)C(=O)N[C@H]1CSCCN(CC(=O)c2ccc(N(C)C)cc2)C1=O |  | IC50 [4]: 9.3 µM |
| CC(=O)N[C@@H](Cc1ccc(OP(=O)(O)O)cc1)C(=O)N[C@H]1CSCCN(Cc2ccc(-c3ccccc3)cc2)C1=O |  | IC50 [4]: 0.09 µM |
| COc1ccc(C2Sc3ccccc3N(CC(=O)NCc3cccc4ccccc34)C(=O)C2NC(=O)c2ccc3cc(OP(=O)(O)OCc4ccccc4)ccc3c2)cc1 (stereo not drawn) | 23 µM |  |
| CC(=O)N[C@@H](Cc1ccc(OP(=O)(O)O)cc1)C(=O)N[C@H]1CSCCN(Cc2cccc(-c3ccccc3C#N)c2)C1=O |  | IC50 [4]: 0.3 µM |
| CC(C)(C)OC(=O)N[C@H](Cc1ccc(OP(=O)(O)O)cc1)C(=O)NC1CSc2ccccc2N(CCCC2CCCCC2)C1=O (stereo partly drawn) | 422 µM | IC50 [2]: 18 µM |
| CC(C)(C)OC(=O)N[C@@H](Cc1ccc(OP(=O)(O)O)cc1)C(=O)NC1CSCCN(CCCC2CCCCC2)C1=O (stereo partly drawn) | 115 µM | IC50 [2]: 1.4 µM |
| CC(=O)N[C@@H](Cc1ccc(OP(=O)(O)O)cc1)C(=O)N[C@H]1CSCCN(Cc2ccc3c(c2Cl)OCO3)C1=O |  | IC50 [4]: 1.2 µM |
| CC[C@H](C)[C@H](NC(=O)[C@H](CCC(=O)O)NC(=O)[C@H](CCC(=O)O)NC(=O)[C@@H](N)Cc1ccc(OP(=O)(O)O)cc1)C(=O)O | 6.5 µM | IC50 [2]: 0.15 µM; IC50 [3]: 5 µM |
| COC(=O)c1cccc(CN2CCSC[C@H](NC(=O)[C@H](Cc3ccc(OP(=O)(O)O)cc3)NC(C)=O)C2=O)c1 |  | IC50 [4]: 0.13 µM |
| COc1ccc(C2Sc3ccccc3N(CCCC3CCCCC3)C(=O)C2NC(=O)[C@H](Cc2ccc(OP(=O)(O)OCc3ccccc3)cc2)NC(=O)OC(C)(C)C)cc1 (stereo partly drawn) | 6.4 µM | IC50 [2]: > 100 µM; IC50 [3]: 28 µM |
| COc1ccc(C2Sc3ccccc3NC(=O)C2NC(=O)[C@H](Cc2ccc(OP(=O)(O)OCc3ccccc3)cc2)NC(=O)OC(C)(C)C)cc1 (stereo partly drawn) | 873 µM |  |
| CC(=O)N[C@@H](Cc1ccc(OP(=O)(O)O)cc1)C(=O)N[C@H]1CSCCN(Cc2cccc(C(=O)c3ccccc3)c2)C1=O | 1.6 µM |  |
| CC(=O)N[C@@H](Cc1ccc(OP(=O)(O)O)cc1)C(=O)N[C@H]1CSCCN(Cc2cccc(OC(F)(F)F)c2)C1=O | 0.4 µM |  |
| COc1ccc(C2Sc3ccccc3N(CC(=O)NCc3cccc4ccccc34)C(=O)C2NC(=O)c2ccc(OP(=O)(O)OCc3ccccc3)cc2)cc1 (stereo not drawn) | 20 µM |  |
| COc1ccc(C2Sc3ccccc3N(CC(=O)NCc3cccc4ccccc34)C(=O)C2NC(=O)c2cc3cc(OP(=O)(O)OCc4ccccc4)ccc3[nH]2)cc1 (stereo not drawn) | 32 µM |  |
| CC(C)(C)OC(=O)N[C@@H](Cc1ccc(OP(=O)(O)OCc2ccccc2)cc1)C(=O)NC1CSc2ccccc2N(CCCC2CCCCC2)C1=O (stereo partly drawn) | 26 µM | IC50 [2]: 13 µM; IC50 [3]: 87 µM |

Now from value to compound, other results behind:

| IC50 [1] | SMILES | other results |
| --- | --- | --- |
| 133 µM | COc1ccc(C2Sc3ccccc3N(CC(=O)Nc3cccc4ccccc34)C(=O)C2NC(=O)[C@H](Cc2ccc(OP(=O)(O)OCc3ccccc3)cc2)NC(=O)OC(C)(C)C)cc1 (stereo in doubt; 3l) |  |
| 14.2 µM | COc1ccc(C2Sc3ccccc3N(CC(=O)Nc3cccc(Oc4ccccc4)c3)C(=O)C2NC(=O)[C@H](Cc2ccc(OP(=O)(O)OCc3ccccc3)cc2)NC(=O)OC(C)(C)C)cc1 (stereo partly drawn) |  |
| 189 µM | COc1ccc(C2Sc3ccccc3N(CC(=O)Nc3cccc4ccccc34)C(=O)C2NC(=O)[C@H](Cc2ccc(OP(=O)(O)OCc3ccccc3)cc2)NC(=O)OC(C)(C)C)cc1 (stereo in doubt; 3c) |  |
| 26 µM | COc1ccc(C2Sc3ccccc3N(CC(=O)Nc3cccc4ccccc34)C(=O)C2NC(=O)[C@H](Cc2ccc(OP(=O)(O)OCc3ccccc3)cc2)NC(=O)OC(C)(C)C)cc1 (stereo in doubt; 3m) |  |
| 23 µM | COc1ccc(C2Sc3ccccc3N(C(C(=O)Nc3cccc4ccccc34)c3ccccc3)C(=O)C2NC(=O)[C@H](Cc2ccc(OP(=O)(O)OCc3ccccc3)cc2)NC(=O)OC(C)(C)C)cc1 (stereo partly drawn) |  |
| 95 µM | COc1ccc(C2Sc3ccccc3N(CC(=O)Nc3ccccc3OC)C(=O)C2NC(=O)[C@H](Cc2ccc(OP(=O)(O)OCc3ccccc3)cc2)NC(=O)OC(C)(C)C)cc1 (stereo partly drawn) |  |
| 29 µM | COc1ccc(C2Sc3ccccc3N(CC(=O)Nc3ccc(Oc4ccccc4)cc3)C(=O)C2NC(=O)[C@H](Cc2ccc(OP(=O)(O)OCc3ccccc3)cc2)NC(=O)OC(C)(C)C)cc1 (stereo partly drawn) |  |
| 23 µM | COc1ccc(C2Sc3ccccc3N(CC(=O)Nc3cccc4ccccc34)C(=O)C2NC(=O)[C@H](Cc2ccc(OP(=O)(O)OCc3ccccc3)cc2)NC(=O)OC(C)(C)C)cc1 (stereo in doubt; 3n) |  |
| 339 µM | COc1ccc(C2Sc3ccccc3N(CC(=O)NCc3cccc4ccccc34)C(=O)C2NC(=O)CCc2ccc(OP(=O)(O)OCc3ccccc3)cc2)cc1 (stereo not drawn) |  |
| 46 µM | COc1ccc(C2Sc3ccccc3N(Cc3ccccc3)C(=O)C2NC(=O)[C@H](Cc2ccc(OP(=O)(O)OCc3ccccc3)cc2)NC(=O)OC(C)(C)C)cc1 (stereo partly drawn) |  |
| 5 µM | COc1ccc(C2Sc3ccccc3N(CC(=O)NCc3cccc4ccccc34)C(=O)C2NC(=O)Cc2ccc(OP(=O)(O)OCc3ccccc3)cc2)cc1 (stereo not drawn) |  |
| 118 µM | COc1ccc(C2Sc3ccccc3N(CC(=O)NCc3cccc4ccccc34)C(=O)C2NC(=O)[C@H](Cc2ccc(OP(=O)(O)OCc3ccccc3)cc2)NC(=O)OC(C)(C)C)cc1 (stereo in doubt; 3b) |  |
| 18 µM | COc1ccc(C2Sc3ccccc3N(Cc3ccc(-c4ccccc4C(=O)OC(C)(C)C)cc3)C(=O)C2NC(=O)[C@H](Cc2ccc(OP(=O)(O)OCc3ccccc3)cc2)NC(=O)OC(C)(C)C)cc1 (stereo partly drawn) |  |
| 128 µM | COc1ccc(C2Sc3ccccc3N(CC(=O)NCc3cccc4ccccc34)C(=O)C2NC(=O)[C@H](Cc2ccc(OP(=O)(O)OCc3ccccc3)cc2)NC(=O)OC(C)(C)C)cc1 (stereo in doubt; 3a) |  |
